Two compounds from patent publication US20060166237A1, “Method of detecting reaction of DNA and DNA-binding protein” (OLYMPUS CORPORATION, priority 2003, published 2006) can be followed below.

Common to all, as to format: cell-based
For experiment [1], the system named is transcription factor AP-1 in HeLa cell. Description: Activation of AP-1 in HeLa cell nucleus by TNF-α and APDC stimulation, FCS readout (Experiment 7-1). On the procedure:
(§1) Two hours after addition of APDC, a tumor necrosis factor TNF-α is added to stimulate HeLa cell for 30 minutes, from which a nucleus extract is prepared. A nucleus extract having a concentration of 5, 10 or 20 μg is prepared. Stimulation on a cell is performed in the following two cases.
(§2) (I) The case where stimulation with only a tumor necrosis factor TNF-α is performed for 30 minutes. A concentration of a tumor necrosis factor TNF-α is 0, 10, 25 or 50 ng/ml.
(§3) (II) The case where stimulation with a tumor necrosis factor TNF-α is performed for 30 minutes, two hours after addition of APDC. A concentration of APDC is 10, 100 or 200 μM relative to a 50 ng/ml of a tumor necrosis factor TNF-α.
[Experiment 7-1] Experiment of a reaction of a (fluorescently labeled) DNA having an AP-1-binding sequence and a cell nucleus extract. The Experiment was performed using a cell nucleus extract which is extracted under the condition of a different concentration of an added tumor necrosis factor TNF-α and a different concentration of an added APDC.
The following shown in Table 28 are used to perform a binding reaction experiment in the same way as Experiment 3-1.

The test system of experiment [2] is transcription factor NF-κB in HeLa cell. Description: Activation of NF-κB in HeLa cell nucleus by TNF-α and APDC stimulation, FCS readout (Experiment 7-2). On the procedure: as §1, §2, §3
[Experiment 7-2] Experiment of a reaction of a (fluorescently labeled) DNA having an […] sequence and a cell nucleus extract. The Experiment was performed using a cell nucleus extract which is extracted under the condition of a different concentration of an added tumor necrosis factor TNF-α and a different concentration of added APDC.
The following shown in Table 29 are used to perform a binding reaction experiment in the same way as Experiment 3-2.

Experiment [3] has the same test system. Description: Activation of NF-κB in HeLa cell nucleus by TNF-α stimulation time, FCS readout (Experiment 6-2). Particulars: 50 ng/ml TNF-α, nucleus extract 20 μg, DNA 30, FIG. 19. On the procedure:
[Experiment 6-2] Experiment of a reaction of a (fluorescently labeled) DNA having an NF-κB-binding sequence and a cell nucleus extract. The Experiment was performed using a cell nucleus extract which is extracted under the condition of a different time length of stimulation with a tumor necrosis factor TNF-α.
In the same way as Experiment 6-1, 50 ng/ml of a tumor necrosis factor TNF-α was added to HeLa cell, and the HeLa cell was stimulated for 0, 15, 30, 60, 120 or 180 minutes. Then, a nucleus extract was prepared from each HeLa cell.
The following shown in Table 27 are used to perform a binding reaction experiment in the same way as Experiment 3-2.

Experiment [4] has as its system transcription factor AP-1 in HeLa cell. As to the kind of experiment: Activation of AP-1 in HeLa cell nucleus by TNF-α stimulation time, FCS readout (Experiment 6-1). Particulars: 50 ng/ml TNF-α, nucleus extract 20 μg, DNA 20, FIG. 18. On the procedure: [Experiment 6-1] Experiment of a reaction of a (fluorescently labeled) DNA having an AP-1-binding sequence and a cell nucleus extract. The Experiment was performed using a cell nucleus extract which is extracted under the condition of a different time length of stimulation with a tumor necrosis factor TNF-α.
50 ng/ml of a tumor necrosis factor TNF-α was added to HeLa cell, and the HeLa cell was stimulated for 0, 15, 30, 60, 120 or 180 minutes. Then, a nucleus extract was prepared from each HeLa cell (for preparation method, see Example 3). A concentration of a nucleus extract was set to be 20 μg.
The following shown in Table 26 are used to perform a binding reaction experiment in the same way as Experiment 3-1.

Setting [5] is: HeLa cell, APDC 10, 100 or 200 μM with 50 ng/ml TNF-α.

Regarding `N.S=C(S)N1CCCC1` [APDC, Ammonium pyrrolidinedithiocarbamate], in experiment [1] (APDC 100 μM and 200 μM, added 2 hours before 50 ng/ml TNF-α for 30 minutes, FIG. 20), the “activation of transcription factor AP-1 in cell nucleus extract” value is given as “most activated”. The “effect of APDC on activation of transcription factor AP-1 by TNF-α” value in experiment [1] (setting [5]) is reported as “promotes activation of a transcription factor AP-1 by a tumor necrosis factor TNF-α”. In experiment [2] (setting [5]), the “effect of APDC on activation of transcription factor NF-κB by TNF-α” value is “suppresses activation of a transcription factor NF-κB by a tumor necrosis factor TNF-α”.
Regarding tumor necrosis factor TNF-α, the “stimulation time giving greatest translational diffusion time (NF-κB sufficiently activated)” value in experiment [3] was found to be 15 min. Further, the “stimulation time giving greatest translational diffusion time (AP-1 sufficiently activated)” value in experiment [4] stood at 30 min. The “activation of transcription factor NF-κB in cell nucleus extract” value in experiment [2] (stimulation with only TNF-α 50 ng/ml for 30 minutes, FIG. 21) was “most activated”.
